From patent publication US8420631B2, “6-substituted-2,3,4,5-tetrahydro-1H-benzo[d]azepines as 5-HT2C receptor agonists” (Eli Lilly and Company, priority 2005, dated 2013)

Key:
[1] = tested on: male NIH Swiss mice; conditions: background statement; cited from earlier work
[2] = tested on: Wistar rats; conditions: general statement on standards; cited from earlier work
[3] = tested on: male NIH Swiss mice; assay: Marble burying assay; format: in vivo, mouse; conditions: with rotorod performance
Source text: Marble burying in mice has been used to model anxiety disorders including obsessive-compulsive disorders (OCD) due to ethological study of the behavior (e.g. Gyertyan I. “Analysis of the marble burying response: Marbles serve to measure digging rather than evoke burying”, Behavioural Pharmacology 6: 24-31, (1995)) and due to the pharmacological effects of clinical standards (c.f., Njung'E K. Handley S L. “Evaluation of marble-burying behavior as a model of anxiety”, Pharmacology, Biochemistry & Behavior. 38: 63-67, (1991)); Borsini F., Podhorna J., and Marazziti, D. “Do animal models of anxiety predict anxiolytic effects of antidepressants?”, Psychopharmacology 163: 121-141, (2002)).
House experimentally-naïve male, NIH Swiss mice (Harlan Sprague-Dawley, Indianapolis, Ind.) weighing between 28-35 g in groups of 12 for at least three days prior to testing in a vivarium with 12 h light and dark cycles. Conduct experiments during the light cycle in a dimly lit experimental testing room. Dose mice with vehicle or test compound and, after a specified pretreatment interval (generally 30 min.), place each mouse individually on a rotorod (Ugo Basile 7650) operating at a speed of 6 revolutions/min. and observe for falling. […]
Clinically effective standard compounds suppress marble burying at doses that are devoid of motor-impairing effects as measured on the rotorod. […]

[4] = tested on: male NIH Swiss mice; assay: Nestlet shredding; format: in vivo, mouse; conditions: with rotorod / motor effects
Source text: Mice naturally will construct nests of material available in their living environment. Since this behavior is obsessive in nature, it has been used to model OCD (Xia Li, Denise Morrow and Jeffrey M. Witkin, “Decreases in nestlet shredding of mice by serotonin uptake inhibitors: comparison with marble burying”, Psychopharmacology, submitted Jul. 14, 2003). House experimentally-naïve male, NIH Swiss mice (Harlan Sprague-Dawley, Indianapolis, Ind.) weighing between 28-35 g in groups of 12 for at least three days prior to testing in a vivarium with a 12 h light/dark cycle. Conduct experiments during the light cycle in an experimental room with normal overhead fluorescent lighting. Dose mice with vehicle or test compound and after a specified pretreatment interval (generally 30 min.), place the mice individually in a 17×28×12 cm high plastic tub with about 5 mm sawdust shavings on the floor along with a pre-weighed multi-ply gauze pad (51 mm square). After 30 min., weigh the remainder of the gauze pad not removed by the mouse. Determine the weight of the gauze used for nestlet construction by subtraction. Compare the results for test compound treated mice to the results for vehicle control treated mice with Dunnett's test.
Clinically effective OCD treatment standard compounds suppress nestlet shredding at doses that are devoid of motor-impairing effects as measured by the rotorod test. […]

[5] = tested on: Wistar rats; assay: Schedule-induced polydipsia; conditions: rat, in vivo
Source text: Food-deprived rats exposed to intermittent presentations of food will drink amounts of water that are far in excess of their normal daily intake and in excess of their intake when given all of their food at one time (Falk J L. “Production of polydipsia in normal rats by an intermittent food schedule”, Science 133: 195-196, (1961)). This excessive behavior is persistent and has been used to model OCD.
Maintain Wistar rats on a food restricted diet (to maintain 85% free feeding weight), but with free access to water. Train the rats in a behavioral testing chamber to press a lever to receive a food pellet under a fixed interval schedule, such that the rats are rewarded with a 45 mg food pellet the first time they press a lever after a 120 second interval has elapsed. The fixed interval is then reset to 120 seconds and the process repeated. Thus, during a 90 min. test session, the rats can earn a maximum of 45 pellets. The behavioral chamber is also equipped with a water bottle that is weighed before and after the session to determine the amount of water consumed.
Administer test compounds on Tuesdays and Fridays. […] Compare the rates of lever pressing and water consumption for each animal's performance during sessions after test compound treatment with that animal's performance during control sessions, expressed as a percent of the control rate. […]

CNCCC(Oc1ccc(C(F)(F)F)cc1)c1ccccc1 (stereo not shown) [fluoxetine]
marble burying (literature) [1]: decrease burying
schedule-induced polydipsia, clinically effective OCD standard compounds [2]: suppress schedule-induced polydipsia without producing notable changes in motor patterns, food intake, or behavior the following day

CN(C)CCCN1c2ccccc2Sc2ccc(Cl)cc21 [chlorpromazine]
marble burying behavior [3]: decrease marble burying only at doses that also disrupt rotorod performance

CN(C)CCCN1c2ccccc2CCc2ccc(Cl)cc21 [chlomipramine]
schedule-induced polydipsia, clinically effective OCD standard compounds [2]: suppress schedule-induced polydipsia without producing notable changes in motor patterns, food intake, or behavior the following day

C[C@H](N)Cc1ccccc1 [d-amphetamine]
nestlet shredding [4]: decreases nestlet shredding only at doses that produce motoric side effects
schedule-induced polydipsia (excessive drinking) [5]: decreases excessive drinking only at behaviorally stimulating doses
suppression of excessive drinking with co-administration of the 5-HT2C antagonist [5]: not prevented
